In patent US11414436B2, “Non-coordinating anion type activators containing cation having large alkyl groups” (ExxonMobil Chemical Patents Inc., priority 2018, dated 2022):

Key:
[1] = Solubility studies of the activators (saturated solution in isohexane or methylcyclohexane); assay type: physicochemical; details: methylcyclohexane
[2] = as above; assay type: physicochemical; details: for Solubility limit in i-hexane (mM at 25° C.) / Solubility limit in i-hexane (wt % at 25° C.): isohexane; for Solubility limit in MeCy (mM at 25° C.): methylcyclohexane
Method: Solubility Studies of the Activators
Procedure for Solid Activators.
A saturated solution of each of the solid ammonium borate activators was prepared by stirring an excess of the activator with either isohexane or methylcyclohexane solvent for several hours at 25° C. The mixture was then filtered and a known volume of the filtrate was evaporated to dryness in a tared vial. The vial was then weighed to determine the mass of activator that was dissolved in the aliquot. The concentration of the saturated solution is presented in millimoles of activator per liter of solution (mM).
Procedure for Activators that Form Emulsions.
A saturated solution of the activator was prepared by slowly adding the solvent to a pre-weighed amount of the activator. The final volume was determined as the minimum amount of solvent required to convert the emulsion into a homogeneous solution. The concentration of the saturated solution is presented in millimoles of activator per liter of solution (mM). Alternatively, an emulsion of the activator was prepared by adding the solvent to an excess amount of activator. The resulting emulsion was separated from the undissolved solids by decanting the emulsion into a tared vial. Solvent was then added dropwise until the emulsion became homogeneous. The mass of the final solution was measured and then the solvent was evaporated to dryness to obtain the mass of the activator. The concentration of the saturated solution is presented in millimoles of activator per liter of solution (mM).

With `CCCCCCCCCCCCCCCCCC[NH+](CCCCCCCCCCCCCCCCCC)c1c(C)cc(C)cc1C.Fc1c(F)c(F)c2c(F)c([B-](c3c(F)c(F)c4c(F)c(F)c(F)c(F)c4c3F)(c3c(F)c(F)c4c(F)c(F)c(F)c(F)c4c3F)c3c(F)c(F)c4c(F)c(F)c(F)c(F)c4c3F)c(F)c(F)c2c1F` [DOdMH-BF28, 2,4,6-trimethyl-N,N-dioctadecylbenzenaminium-BF28] the “Solubility limit in MeCy (wt % at 25° C.)” value [1] was >42 wt %, the “Solubility limit in i-hexane (mM at 25° C.)” value [2] was 7.6 mM and the “Solubility limit in i-hexane (wt % at 25° C.)” value [2] was 0.70 wt %. For the same compound, the “Solubility limit in MeCy (mM at 25° C.)” value [2] was >180 mM.

With `CCCCCCCCCC[NH+](CCCCCCCCCC)c1ccc(C)cc1.Fc1c(F)c(F)c([B-](c2c(F)c(F)c(F)c(F)c2F)(c2c(F)c(F)c(F)c(F)c2F)c2c(F)c(F)c(F)c(F)c2F)c(F)c1F` [DDTH-BF20, N,N-didecyl-4-methylanilinium-BF20] the “Solubility limit in MeCy (wt % at 25° C.)” value [1] was 0.21 wt %, the “Solubility limit in i-hexane (mM at 25° C.)” value [2] was 1.5 mM and the “Solubility limit in i-hexane (wt % at 25° C.)” value [2] was 0.22 wt %. For the same compound, the “Solubility limit in MeCy (mM at 25° C.)” value [2] was 1.7 mM.

With `CCCCCCCCCCCCCCCCCC[NH+](CCCCCCCCCCCCCCCCCC)c1ccccc1C.Fc1c(F)c(F)c2c(F)c([B-](c3c(F)c(F)c4c(F)c(F)c(F)c(F)c4c3F)(c3c(F)c(F)c4c(F)c(F)c(F)c(F)c4c3F)c3c(F)c(F)c4c(F)c(F)c(F)c(F)c4c3F)c(F)c(F)c2c1F` [DOdoTH-BF28, 2-methyl-N,N-dioctadecylbenzenaminium-BF28] the “Solubility limit in MeCy (wt % at 25° C.)” value [1] was >40 wt %, the “Solubility limit in i-hexane (mM at 25° C.)” value [2] was 3.0 mM and the “Solubility limit in i-hexane (wt % at 25° C.)” value [2] was 0.73 wt %. For the same compound, the “Solubility limit in MeCy (mM at 25° C.)” value [2] was >190 mM.

For `CCCCCCCCCC[NH+](C)c1ccccc1.Fc1c(F)c(F)c([B-](c2c(F)c(F)c(F)c(F)c2F)(c2c(F)c(F)c(F)c(F)c2F)c2c(F)c(F)c(F)c(F)c2F)c(F)c1F` [MDAH-BF20, N-decyl-N-methylanilinium-BF20], the “Solubility limit in MeCy (wt % at 25° C.)” value [1] was 0.17 wt %, the “Solubility limit in i-hexane (mM at 25° C.)” value [2] was 1.3 mM and the “Solubility limit in i-hexane (wt % at 25° C.)” value [2] was 0.18 wt %. The “Solubility limit in MeCy (mM at 25° C.)” value [2] was 1.4 mM.

For `CCCCCCCCCCCCCCCCCC[NH+](CCCCCCCCCCCCCCCCCC)c1ccccc1C(C)C.Fc1c(F)c(F)c2c(F)c([B-](c3c(F)c(F)c4c(F)c(F)c(F)c(F)c4c3F)(c3c(F)c(F)c4c(F)c(F)c(F)c(F)c4c3F)c3c(F)c(F)c4c(F)c(F)c(F)c(F)c4c3F)c(F)c(F)c2c1F` [DOdPAH-BF28, 2-isopropyl-N,N-dioctadecylbenzenaminium-BF28], the “Solubility limit in MeCy (wt % at 25° C.)” value [1] was >40 wt %, the “Solubility limit in i-hexane (mM at 25° C.)” value [2] was 2.9 mM and the “Solubility limit in i-hexane (wt % at 25° C.)” value [2] was 1.9 wt %. The Solubility limit in MeCy (mM at 25° C.) [2] was > 200 mM.
